Molecular target: T1, 5-LO (Homo sapiens, UniProt P09917)
T1 construct: incubating a test compound with heparinised human blood, prior to challenge with the calcium ionophore A23187; endogenous in cells; host or cells: human whole blood (blood cells)
T1 sequence (P09917 1-674): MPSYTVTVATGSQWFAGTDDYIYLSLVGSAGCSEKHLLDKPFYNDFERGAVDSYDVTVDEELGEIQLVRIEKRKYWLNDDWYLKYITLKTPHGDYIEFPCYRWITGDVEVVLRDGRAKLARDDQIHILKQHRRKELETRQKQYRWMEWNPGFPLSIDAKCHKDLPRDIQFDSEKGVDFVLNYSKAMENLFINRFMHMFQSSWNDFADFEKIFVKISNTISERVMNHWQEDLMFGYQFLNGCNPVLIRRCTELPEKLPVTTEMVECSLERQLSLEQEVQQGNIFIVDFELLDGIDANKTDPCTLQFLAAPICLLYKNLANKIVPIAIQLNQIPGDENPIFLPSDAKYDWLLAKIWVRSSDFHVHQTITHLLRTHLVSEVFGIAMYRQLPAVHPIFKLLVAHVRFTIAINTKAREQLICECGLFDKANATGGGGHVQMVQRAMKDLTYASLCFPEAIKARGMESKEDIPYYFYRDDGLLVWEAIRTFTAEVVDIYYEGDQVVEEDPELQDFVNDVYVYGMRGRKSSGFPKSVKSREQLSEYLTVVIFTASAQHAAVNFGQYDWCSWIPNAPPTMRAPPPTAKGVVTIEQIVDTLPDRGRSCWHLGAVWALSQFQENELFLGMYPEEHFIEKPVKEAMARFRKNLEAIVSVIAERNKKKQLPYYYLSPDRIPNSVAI
Experiment: Test a): in vitro heparinised human blood challenged with calcium ionophore A23187, radioimmunoassay of LTB4
Type: cell-based
Conditions: A23187 challenge, read-out: IC50 against LTB4 in test (a)
Text: As stated previously, the compounds of the formula I are inhibitors of the enzyme 5-LO. […] J. Pharmacol. 1985, 84, 34P) which involve the use of a protein-LTB4 conjugate produced using the procedure of Young et alia (Prostaglandins, 1983, 26(4), 605-613). The effects of a test compound on the enzyme cyclooxygenase (which is involved in the alternative metabolic pathway for arachidonic acid and gives rise to prostaglandins, thromboxanes and related metabolites) may be measured at the same time using the specific radioimmunoassay for thromboxane B2(TxB2) described by Carey and Forder (see above). This test provides an indication of the effects of a test compound against 5-LO and also cyclooxygenase in the presence of blood cells and proteins. It permits the selectivity of the inhibitory effect on 5-LO or cyclooxygenase to be assessed. • b) An ex vivo assay system, which is a variation of test a) above, involving administration to a group of rats of a test compound (usually orally as the suspension produced when a solution of the test compound in dimethylsulphoxide is added to carboxymethylcellulose), blood collection, heparinisation, challenge with A23187 and radioimmunoassay of LTB4 and TxB2. […]

Row | Structure (SMILES) | IC50
1 | COC1(/C(N)=C/C(=O)OCc2ccc3ccccc3c2)CCOCC1 [Example 1, naphth-2-ylmethyl (Z)-3-amino-3-(4-methoxytetrahydropyran-4-yi)prop-2-enoate] | 0.07 µM
2 | CO/N=C(\C)c1ccc(COC(=O)/C=C(\N)C2(OC)CCOCC2)cc1 [Example 2, 4-[(E)-1-methoxyiminoethyl]benzyl (Z)-3-amino-3-(4-methoxytetrahydropyran-4-yl)prop-2-enoate] | 9.36 µM

From EP0581464A1, “Ester derivatives and pharmaceutical compositions containing them” (ZENECA LIMITED, priority 1992, dated 1994)
